Results: ChEMBL document CHEMBL1201862, “PubChem BioAssay data set” (2004)
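Tested at 5 concentrations; 48 h exposure; 96-well plates; endpoints linearly interpolated, else capped at highest concentration. At the GI50, growth is halved.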 The source made the active and inactive calls. Rule as the data show it: active = GI50 up to about 1.1 µM and inactive = higher. Square brackets hold non-standard residues; d marks the D form. Peptide text beside a SMILES is read from it. * marks the point of attachment. X26 = COC1=CC(=O)N(C(=O)[C@@H](O*)C(C)C)[C@H]1Cc1ccccc1; Bn2Val = CC(C)[C@@H](C(=O)*)N(Cc1ccccc1)Cc1ccccc1; NMeV = CN[C@H](C(=O)O)C(C)C; dNMeA = CN[C@H](C)C(=O)O

What was measured:
Experiment in all cases: DTP human tumour cell line panel, 48 h
OVCAR-3 = tested on: OVCAR-3
HCT-116 = tested on: HCT-116
Malme-3M = tested on: Malme-3M
LOX IMVI = tested on: LOX IMVI
EKVX = tested on: EKVX
COLO 205 = tested on: COLO 205
UACC-62 = tested on: UACC-62
MDA-N = tested on: MDA-N
U-251 = tested on: U-251
CAKI-1 = tested on: CAKI-1
A498 = tested on: A498
MDA-MB-435 = tested on: MDA-MB-435
RPMI-8226 = tested on: RPMI-8226
SN12C = tested on: SN12C
SF-539 = tested on: SF-539
SF-295 = tested on: SF-295
NCI-H460 = tested on: NCI-H460
HT-29 = tested on: HT-29
MOLT-4 = tested on: MOLT-4
OVCAR-4 = tested on: OVCAR-4

Q: How did the GI50 (OVCAR-3) turn out when `CC(C)(C)n1c(=O)n2n(c1=O)C1c3cccc4cccc(c34)C2C2c3cccc4cccc(c34)C1n1c(=O)n(C(C)(C)C)c(=O)n12` was run?
A: 16.3 µM (inactive)

Q: And the GI50 (HCT-116)?
A: 61.9 µM (inactive)

Q: What about the GI50 (Malme-3M) of the same compound?
A: > 100 µM (inactive)

Q: And the GI50 (LOX IMVI)?
A: 42.8 µM (inactive)

Q: What about the GI50 (EKVX) of the same compound?
A: 63.1 µM (inactive)

Q: And the GI50 (COLO 205)?
A: > 100 µM (inactive)

Q: And the GI50 (UACC-62)?
A: 66.4 µM (inactive)

Q: What about the GI50 (MDA-N) of the same compound?
A: > 100 µM (inactive)

Q: And the GI50 (U-251)?
A: 43 µM (inactive)

Q: And the GI50 (CAKI-1)?
A: 6.65 µM (inactive)

Q: What about the GI50 (A498) of the same compound?
A: > 100 µM (inactive)

Q: And the GI50 (MDA-MB-435)?
A: > 100 µM (inactive)

Q: What about the GI50 (RPMI-8226) of the same compound?
A: 55.8 µM (inactive)

Q: And the GI50 (SN12C)?
A: > 100 µM (inactive)

Q: What about the GI50 (SF-539) of the same compound?
A: 41.4 µM (inactive)

Q: And the GI50 (SF-295)?
A: 80.4 µM (inactive)

Q: And the GI50 (NCI-H460)?
A: 64.7 µM (inactive)

Q: What about the GI50 (HT-29) of the same compound?
A: > 100 µM (inactive)

Q: And the GI50 (MOLT-4)?
A: 61 µM (inactive)

Q: What does the source list for `O=[N+]([O-])/C=C\c1c[nH]c2ccc(OCc3ccccc3)cc12`?
A: GI50 (OVCAR-3): 10.4 µM (inactive); GI50 (HCT-116): 1.73 µM (inactive); GI50 (Malme-3M): 11 µM (inactive); GI50 (LOX IMVI): 1.86 µM (inactive); GI50 (EKVX): 13.4 µM (inactive); GI50 (COLO 205): 3.85 µM (inactive); GI50 (UACC-62): 2.9 µM (inactive); GI50 (MDA-N): 2.23 µM (inactive); GI50 (U-251): 5.85 µM (inactive); GI50 (CAKI-1): 20.6 µM (inactive); GI50 (A498): 10.5 µM (inactive); GI50 (MDA-MB-435): 2.16 µM (inactive); GI50 (RPMI-8226): 2.08 µM (inactive); GI50 (SN12C): 2.24 µM (inactive); GI50 (SF-539): 10.4 µM (inactive); GI50 (SF-295): 10.6 µM (inactive); GI50 (NCI-H460): 4.43 µM (inactive); GI50 (MOLT-4): 3.6 µM (inactive)

Q: Which results are given for `CO[C@@](c1ccccc1)(c1nc(C#N)c(N)o1)C(F)(F)F`?
A: GI50 (OVCAR-3): > 100 µM (inactive); GI50 (HCT-116): 78.2 µM (inactive); GI50 (Malme-3M): > 100 µM (inactive); GI50 (LOX IMVI): > 100 µM (inactive); GI50 (EKVX): > 100 µM (inactive); GI50 (COLO 205): > 100 µM (inactive); GI50 (UACC-62): 77.4 µM (inactive); GI50 (MDA-N): > 100 µM (inactive); GI50 (U-251): > 100 µM (inactive); GI50 (CAKI-1): > 100 µM (inactive); GI50 (A498): > 100 µM (inactive); GI50 (MDA-MB-435): > 100 µM (inactive); GI50 (RPMI-8226): 36.3 µM (inactive); GI50 (SN12C): > 100 µM (inactive); GI50 (SF-539): > 100 µM (inactive); GI50 (SF-295): > 100 µM (inactive); GI50 (MOLT-4): 82.2 µM (inactive); GI50 (OVCAR-4): > 100 µM (inactive)

Q: For `COc1ccc(/C=C2\CCC(C)C3=C2N=c2s/c(=C/c4cccc(Br)c4)c(=O)n2C3c2ccc(OC)c(OC)c2)cc1OC` (stereo not given), which GI50 (HCT-116) is on record?
A: > 100 µM (inactive)

Q: And the GI50 (LOX IMVI)?
A: > 100 µM (inactive)

Q: And the GI50 (EKVX)?
A: > 100 µM (inactive)

Q: What about the GI50 (UACC-62) of the same compound?
A: > 100 µM (inactive)

Q: And the GI50 (MDA-N)?
A: > 100 µM (inactive)

Q: What about the GI50 (U-251) of the same compound?
A: > 100 µM (inactive)

Q: And the GI50 (CAKI-1)?
A: > 100 µM (inactive)

Q: And the GI50 (A498)?
A: > 100 µM (inactive)

Q: What about the GI50 (MDA-MB-435) of the same compound?
A: > 100 µM (inactive)

Q: And the GI50 (RPMI-8226)?
A: > 100 µM (inactive)

Q: What about the GI50 (SN12C) of the same compound?
A: > 100 µM (inactive)

Q: And the GI50 (HT-29)?
A: > 100 µM (inactive)

Q: What about the GI50 (MOLT-4) of the same compound?
A: > 100 µM (inactive)

Q: And the GI50 (OVCAR-4)?
A: > 100 µM (inactive)

Q: With `CC1N[B@@-](C)(c2ccc(C(F)(F)F)cc2)OC1c1ccccc1` (stereo not given in full) as the compound, how does the GI50 (OVCAR-3) read?
A: 57.8 µM (inactive)

Q: And the GI50 (HCT-116)?
A: 89.3 µM (inactive)

Q: What about the GI50 (Malme-3M) of the same compound?
A: 86.3 µM (inactive)

Q: What about the GI50 (LOX IMVI) of the same compound?
A: 98.2 µM (inactive)

Q: What about the GI50 (EKVX) of the same compound?
A: 41.4 µM (inactive)

Q: And the GI50 (COLO 205)?
A: > 100 µM (inactive)

Q: What about the GI50 (UACC-62) of the same compound?
A: > 100 µM (inactive)

Q: What about the GI50 (MDA-N) of the same compound?
A: > 100 µM (inactive)

Q: What about the GI50 (U-251) of the same compound?
A: > 100 µM (inactive)

Q: And the GI50 (A498)?
A: 58.9 µM (inactive)

Q: What about the GI50 (MDA-MB-435) of the same compound?
A: > 100 µM (inactive)

Q: What about the GI50 (RPMI-8226) of the same compound?
A: 34.7 µM (inactive)

Q: And the GI50 (SN12C)?
A: > 100 µM (inactive)

Q: And the GI50 (SF-295)?
A: > 100 µM (inactive)

Q: What about the GI50 (NCI-H460) of the same compound?
A: > 100 µM (inactive)

Q: And the GI50 (HT-29)?
A: 72.1 µM (inactive)

Q: And the GI50 (MOLT-4)?
A: 29.9 µM (inactive)

Q: What about the GI50 (OVCAR-4) of the same compound?
A: > 100 µM (inactive)

Q: Which GI50 (HCT-116) does the source give for `Cc1cc(-c2nc3ccccc3s2)ccc1NS(=O)(=O)O` here?
A: > 4.65 µM (inactive)

Q: And the GI50 (Malme-3M)?
A: > 6.56 µM (inactive)

Q: What about the GI50 (LOX IMVI) of the same compound?
A: > 4.65 µM (inactive)

Q: And the GI50 (COLO 205)?
A: > 4.65 µM (inactive)

Q: And the GI50 (UACC-62)?
A: > 12.2 µM (inactive)

Q: And the GI50 (MDA-N)?
A: > 6.04 µM (inactive)

Q: And the GI50 (CAKI-1)?
A: > 7.21 µM (inactive)

Q: And the GI50 (A498)?
A: 65.9 µM (inactive)

Q: And the GI50 (MDA-MB-435)?
A: > 7.08 µM (inactive)

Q: And the GI50 (RPMI-8226)?
A: > 4.65 µM (inactive)

Q: What about the GI50 (SN12C) of the same compound?
A: > 5.92 µM (inactive)

Q: And the GI50 (SF-539)?
A: 0.0508 µM (active)

Q: And the GI50 (SF-295)?
A: > 43.1 µM (inactive)

Q: What about the GI50 (HT-29) of the same compound?
A: > 4.65 µM (inactive)

Q: What about the GI50 (MOLT-4) of the same compound?
A: 4.73 µM (inactive)

Q: With `COC1=CC(=O)N(C(=O)[C@@H](OC(=O)[C@@H](C)N(C)C(=O)[C@@H]2CCCN2C(=O)[C@H](C(C)C)N(C)C(=O)[C@@H](NC(=O)[C@H](C(C)C)N(Cc2ccccc2)Cc2ccccc2)C(C)C)C(C)C)[C@H]1Cc1ccccc1` (Bn2Val-V[NMeV]P[dNMeA]-X26) as the compound, how does the GI50 (OVCAR-3) read?
A: > 100 µM (inactive)

Q: And the GI50 (HCT-116)?
A: 4.32 µM (inactive)

Q: And the GI50 (Malme-3M)?
A: > 59.6 µM (inactive)

Q: And the GI50 (LOX IMVI)?
A: > 100 µM (inactive)

Q: And the GI50 (EKVX)?
A: > 44.5 µM (inactive)

Q: And the GI50 (COLO 205)?
A: > 100 µM (inactive)

Q: What about the GI50 (UACC-62) of the same compound?
A: > 60.7 µM (inactive)

Q: And the GI50 (MDA-N)?
A: > 100 µM (inactive)

Q: And the GI50 (U-251)?
A: 11.4 µM (inactive)

Q: What about the GI50 (CAKI-1) of the same compound?
A: > 100 µM (inactive)

Q: And the GI50 (A498)?
A: 38.2 µM (inactive)

Q: What about the GI50 (MDA-MB-435) of the same compound?
A: > 100 µM (inactive)

Q: And the GI50 (SN12C)?
A: > 100 µM (inactive)

Q: And the GI50 (SF-539)?
A: > 37.2 µM (inactive)

Q: And the GI50 (SF-295)?
A: > 71.3 µM (inactive)

Q: What about the GI50 (NCI-H460) of the same compound?
A: > 100 µM (inactive)

Q: What about the GI50 (HT-29) of the same compound?
A: > 100 µM (inactive)

Q: What about the GI50 (OVCAR-4) of the same compound?
A: > 100 µM (inactive)
